Results published in patent publication US20240424111A1, “Degrader Compounds and Uses Thereof” (CALICO LIFE SCIENCES LLC, priority 2021, published 2024).

Assays:
PTPN2 [1] = target: T1, PTPN2 (Mus musculus, UniProt Q06180); test: HiBiT PTPN2 degradation in B16F10.4 cells, 24 hours; format: cell-based
T1 construct: HiBiT; host or cells: B16F10.4
T1 sequence (Q06180 1-406): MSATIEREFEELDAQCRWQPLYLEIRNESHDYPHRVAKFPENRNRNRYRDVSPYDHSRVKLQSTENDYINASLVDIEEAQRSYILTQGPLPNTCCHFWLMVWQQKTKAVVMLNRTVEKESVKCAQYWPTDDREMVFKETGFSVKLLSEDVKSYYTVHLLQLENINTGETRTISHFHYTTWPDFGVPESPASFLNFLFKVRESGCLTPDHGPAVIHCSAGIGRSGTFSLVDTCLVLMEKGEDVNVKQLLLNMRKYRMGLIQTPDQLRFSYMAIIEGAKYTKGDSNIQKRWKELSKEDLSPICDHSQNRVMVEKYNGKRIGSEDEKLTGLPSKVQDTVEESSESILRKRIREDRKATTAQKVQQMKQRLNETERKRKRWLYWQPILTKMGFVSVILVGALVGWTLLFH
How it was run: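 PTPN2 degradation was measured via luminescence from the Nano-Glo® HiBiT Lytic Assay kit. Compounds were dispensed into 384-well plates at an 11-point half-log titration in duplicate, starting at 10 μM. Cells were added at 5000 per well and held at 37° C. with 5% CO2 for 24 hours. Untreated cells were the negative control and cells without lytic reagent the positive control. Lytic reagents were then added and luminescence read on an EnVision™ Multilabel Reader.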

PTPN2 [2] = target: T2, PTPN2 (Homo sapiens, UniProt P17706); test: HiBiT PTPN2 degradation in 293T.109 (HiBiT-PTPN2) cells, 24 hours; format: cell-based; details: 293T.109 cells
T2 construct: expressed in transfected cells; host or cells: 293T.109 (HiBiT-PTPN2), derived from 293T WT (ATCC)
T2 sequence (P17706 1-415): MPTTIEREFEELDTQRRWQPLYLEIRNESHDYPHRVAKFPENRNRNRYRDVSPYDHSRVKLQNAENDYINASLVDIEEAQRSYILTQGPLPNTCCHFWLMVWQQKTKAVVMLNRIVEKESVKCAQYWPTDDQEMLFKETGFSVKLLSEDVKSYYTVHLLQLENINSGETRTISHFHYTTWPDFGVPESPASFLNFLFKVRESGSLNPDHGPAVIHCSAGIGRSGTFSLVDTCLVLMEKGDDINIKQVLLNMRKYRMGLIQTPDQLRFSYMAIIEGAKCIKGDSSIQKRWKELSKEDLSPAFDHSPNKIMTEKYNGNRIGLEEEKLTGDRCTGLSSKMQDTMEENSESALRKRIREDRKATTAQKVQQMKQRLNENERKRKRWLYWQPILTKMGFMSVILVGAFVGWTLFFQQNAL
How it was run: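 293T cells stably expressing N-terminal HiBiT-tagged PTPN2 were treated for 24 h at 37 °C with compound in an 11-point half-log series from 10 μM top concentration, in duplicate. Remaining HiBiT-PTPN2 was measured by lytic luminescence, with untreated cells as the negative control and wells without lytic reagent as the positive control.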

SMILES | DC50 (PTPN2 [1]) [nM] | DC50 (PTPN2 [2]) [nM]
O=C1CCC(N2C(=O)c3cccc4c(N5CCC(CCNC(=O)Nc6ccc7c(F)c(N8CC(=O)NS8(=O)=O)c(O)cc7c6)CC5)ccc2c34)C(=O)N1 (centres unmarked) [Degrader 53] | < 50 | < 50
Cn1c(=O)n(C2CCC(=O)NC2=O)c2ccc(C3CCN(CC(=O)N4CC[C@@H](Oc5ccc6cc(O)c(N7CC(=O)NS7(=O)=O)c(F)c6c5)C4)CC3(F)F)cc21 (some centres unmarked) [Degrader 117] | ≥ 500 | ≥ 500
CC(C)n1c(=O)n(C2CCC(=O)NC2=O)c2ccc(N3CCC(CC(=O)Nc4ccc5c(F)c(N6CC(=O)NS6(=O)=O)c(O)cc5c4)CC3)cc21 (centres unmarked) [Degrader 35] | 150 to 500 | ≥ 500
Cn1c(=O)n(C2CCC(=O)NC2=O)c2ccc(N3CCC(CC4CC4C(=O)Nc4ccc5c(F)c(N6CC(=O)NS6(=O)=O)c(O)cc5c4)CC3)cc21 (centres unmarked) [Degrader 68] | 50 to 150 | 50 to 150
Cn1c(=O)n(C2CCC(=O)NC2=O)c2ccc(C3CC4CCC(C3)N4CC(=O)Nc3ccc4c(F)c(N5CC(=O)NS5(=O)=O)c(O)cc4c3)cc21 (centres unmarked) [Degrader 50] | 150 to 500 | 50 to 150
Cn1c(=O)n(C2CCC(=O)NC2=O)c2ccc([C@H]3CN(CC(=O)Nc4ccc5c(F)c(N6CC(=O)NS6(=O)=O)c(O)cc5c4)CC[C@@H]3F)cc21 (some centres unmarked) [Degrader 142] | 150 to 500 | 150 to 500
Cn1c(=O)n(C2CCC(=O)NC2=O)c2ccc(N3CCC(O)(CC(=O)N4CC[C@@H](c5ccc6cc(O)c(N7CC(=O)NS7(=O)=O)c(F)c6c5)C4)CC3)cc21 (some centres unmarked) [Degrader 114] | ≥ 500 | ≥ 500
Cn1c(=O)n(C2CCC(=O)NC2=O)c2ccc(CC3CCN(C(=O)Nc4ccc5c(F)c(N6CC(=O)NS6(=O)=O)c(O)cc5c4)CC3)cc21 (centres unmarked) [Degrader 34] | ≥ 500 | ≥ 500
Cn1c(=O)n(C2CCC(=O)NC2=O)c2cc(F)c(N3CCC(CC(=O)Nc4ccc5c(F)c(N6CC(=O)NS6(=O)=O)c(O)cc5c4)CC3)cc21 (centres unmarked) [Degrader 43] | 150 to 500 | < 50
Cn1c(=O)n(C2CCC(=O)NC2=O)c2ccc(-c3ccc([C@H](CO)C(=O)Nc4ccc5c(F)c(N6CC(=O)NS6(=O)=O)c(O)cc5c4)cc3)cc21 (some centres unmarked) [Degrader 137] | < 50 | 150 to 500
Cn1c(=O)n(C2CCC(=O)NC2=O)c2ccc(C3CCN(CCNC(=O)c4ccc5c(F)c(N6CC(=O)NS6(=O)=O)c(O)cc5c4)CC3(F)F)cc21 (centres unmarked) [Degrader 59] | 50 to 150 | 150 to 500
Cn1c(=O)n(C2CCC(=O)NC2=O)c2ccc(Nc3ccc(CC(=O)Nc4ccc5c(F)c(N6CC(=O)NS6(=O)=O)c(O)cc5c4)cc3F)cc21 (centres unmarked) [Degrader 71] | 50 to 150 | 50 to 150
Cn1c(=O)n(C2CCC(=O)NC2=O)c2ccc([C@@H]3CCN(CC(=O)Nc4ccc5c(F)c(N6CC(=O)NS6(=O)=O)c(O)cc5c4)C3)cc21 (some centres unmarked) [Degrader 124] | 150 to 500 | < 50
Cn1c(=O)n(C2CCC(=O)NC2=O)c2ccc(-c3ccc(CC(=O)Nc4ccc5c(F)c(N6CC(=O)NS6(=O)=O)c(O)cc5c4)cc3F)c(F)c21 (centres unmarked) [Degrader 56] | 50 to 150 | 150 to 500
Cn1c(=O)n(C2CCC(=O)NC2=O)c2ccc(C3CCN(CC4CC4C(=O)N4CC[C@H](c5ccc6cc(O)c(N7CC(=O)NS7(=O)=O)c(F)c6c5)C4)CC3)cc21 (some centres unmarked) [Degrader 17] | 150 to 500 | 50 to 150
Cn1c(=O)n(C2CCC(=O)NC2=O)c2ccc3c(c21)CCCN3CCCCC(=O)Nc1ccc2c(F)c(N3CC(=O)NS3(=O)=O)c(O)cc2c1 (centres unmarked) [Degrader 146] | 50 to 150 | < 50
Cn1cc(C(=O)Nc2ccc3c(F)c(N4CC(=O)NS4(=O)=O)c(O)cc3c2)c2ccc(-c3ccc4c(c3)n(C)c(=O)n4C3CCC(=O)NC3=O)cc21 (centres unmarked) [Degrader 82] | 150 to 500 | 150 to 500

SMILES | DC50 (PTPN2 [1]) [nM] | DC50 (PTPN2 [2]) [nM]
C[C@H]1CC(c2ccc3c(c2)n(C)c(=O)n3C2CCC(=O)NC2=O)CCN1CC(=O)Nc1ccc2c(F)c(N3CC(=O)NS3(=O)=O)c(O)cc2c1 (some centres unmarked) [Degrader 121] | 50 to 150 | < 50
Cn1c(=O)n(C2CCC(=O)NC2=O)c2ccc(-n3cc(CC(=O)Nc4ccc5c(F)c(N6CC(=O)NS6(=O)=O)c(O)cc5c4)cn3)cc21 (centres unmarked) [Degrader 153] | 50 to 150 | 150 to 500
Cn1c(=O)n(C2CCC(=O)NC2=O)c2ccc(C3CCN(CC(=O)Nc4ccc5c(F)c(N6CC(=O)NS6(=O)=O)c(O)cc5c4)CC3F)cc21 (centres unmarked) [Degrader 36] | < 50 | < 50
Cn1c(=O)n(C2CCC(=O)NC2=O)c2ccc(C3CCN(C4CC(C(=O)Nc5ccc6cc(N7CC(=O)NS7(=O)=O)ccc6c5)C4)CC3(F)F)cc21 (centres unmarked) [Degrader 102] | 50 to 150 | 50 to 150
Cn1c(=O)n(C2CCC(=O)NC2=O)c2ccc(-c3ccc(NCC4CC4C(=O)Nc4ccc5c(F)c(N6CC(=O)NS6(=O)=O)c(O)cc5c4)cc3)cc21 (centres unmarked) [Degrader 108] | 50 to 150 | 50 to 150
Cn1c(=O)n(C2CCC(=O)NC2=O)c2ccc(N3[C@@H]4CC[C@H]3C[C@H](CC(=O)Nc3ccc5c(F)c(N6CC(=O)NS6(=O)=O)c(O)cc5c3)C4)cc21 (some centres unmarked) [Degrader 110] | 150 to 500 | 50 to 150
Cn1c(=O)n(C2CCC(=O)NC2=O)c2ccc(C3CC4CCC(C3)N4CC(=O)Nc3ccc4c(F)c(N5CC(=O)NS5(=O)=O)c(O)cc4c3)cc21 (centres unmarked) [Degrader 51] | 150 to 500 | 50 to 150
Cn1c(=O)n(C2CCC(=O)NC2=O)c2ccc(N3[C@@H]4CC[C@H]3C[C@@H](CC(=O)Nc3ccc5c(F)c(N6CC(=O)NS6(=O)=O)c(O)cc5c3)C4)cc21 (some centres unmarked) [Degrader 109] | 150 to 500 | 150 to 500
Cn1c(=O)n(C2CCC(=O)NC2=O)c2ccc(N3CCC(CCNC(=O)Nc4ccc5c(F)c(N6CC(=O)NS6(=O)=O)c(O)cc5c4)CC3)c(F)c21 (centres unmarked) [Degrader 144] | 50 to 150 | < 50
Cn1nc(C2CCC(=O)NC2=O)c2ccc(Nc3ccc(CC(=O)Nc4ccc5c(F)c(N6CC(=O)NS6(=O)=O)c(O)cc5c4)cc3F)cc21 (centres unmarked) [Degrader 41] | 50 to 150 | < 50
Cn1nc(C2CCC(=O)NC2=O)c2ccc(C3CCN(CCNC(=O)c4ccc5c(F)c(N6CC(=O)NS6(=O)=O)c(O)cc5c4)CC3(F)F)cc21 (centres unmarked) [Degrader 61] | 150 to 500 | 150 to 500
Cn1c(=O)n(C2CCC(=O)NC2=O)c2ccc(-c3ccc(CC(=O)Nc4ccc5c(F)c(N6CC(=O)NS6(=O)=O)c(O)cc5c4)cc3)c(F)c21 (centres unmarked) [Degrader 40] | 150 to 500 | 150 to 500
Cc1cc(CC(=O)Nc2ccc3c(F)c(N4CC(=O)NS4(=O)=O)c(O)cc3c2)ccc1-c1ccc2c(c1)n(C)c(=O)n2C1CCC(=O)NC1=O (centres unmarked) [Degrader 28] | < 50 | 50 to 150
Cn1nc(N2CCC(=O)NC2=O)c2cc(F)c(N3CCC(CC(=O)Nc4ccc5c(F)c(N6CC(=O)NS6(=O)=O)c(O)cc5c4)CC3)cc21 [Degrader 129] | 150 to 500 | 50 to 150
Cn1c(=O)n(C2CCC(=O)NC2=O)c2cc(F)c(N3CCC(O)(CC(=O)Nc4ccc5c(F)c(N6CC(=O)NS6(=O)=O)c(O)cc5c4)CC3)cc21 (centres unmarked) [Degrader 74] | 150 to 500 | < 50
C[C@@H]1CN(c2ccc3c(c2)n(C)c(=O)n3C2CCC(=O)NC2=O)CC[C@@H]1CC(=O)Nc1ccc2c(F)c(N3CC(=O)NS3(=O)=O)c(O)cc2c1 (some centres unmarked) [Degrader 127] | 50 to 150 | 50 to 150
CCn1c(=O)n(C2CCC(=O)NC2=O)c2ccc(-c3ccc(CC(=O)Nc4ccc5c(F)c(N6CC(=O)NS6(=O)=O)c(O)cc5c4)cc3)cc21 (centres unmarked) [Degrader 49] | 50 to 150 | 50 to 150
